Measurements published in patent publication US12365710B2, “HMGB1 protein derivatives for the removal of biofilms” (RESEARCH INSTITUTE AT NATIONWIDE CHILDREN'S HOSPITAL, priority 2018, dated 2025).

Experiments:
[1] = test system: established biofilms formed by high priority human pathogens; experiment: in vitro disruption of established biofilms of high priority pathogens (panel); assay type: cell-based, UPEC, B. cenocepacia, NTHI, ESKAPE pathogens; settings: single dose 200 nM, biofilms formed 24 h, 16 h exposure
Procedure: (§1) FIGS. 5A-5E: Anti-biofilm effect of HMGB1 variants on high priority bacterial pathogens. Indicated HMGB1 variants or antibodies against DNABII proteins (α-1HFEc 1gG, 1 μM) were added at 24 h to the respective preformed bacterial biofilms, in vitro. After 16 h of Incubation, biofilms were stained with LIVE/DEAD®, then visualized via confocal laser scanning microscopy. Images were analyzed by COMSTAT to calculate average thickness and comparison to control was plotted. (FIG. 5A) Full-length HMGB1 isoforms (200 nM unless otherwise indicated) added to UPEC, B. cenocepacia, NTHI, or ESKAPE pathogens. 800 nM rHMGB1 and 200 nM mHMGB1 were added for S. aureus (ESKAPE). […] Statistical significance compared to control was assessed with unpaired t-tests, *P<0.05. […] Images were analyzed by COMSTAT to calculate average thickness and total biomass. […]
(§2) HMGB1 disrupts pathogenic biofilms: To test the effect of HMGB1 on bacterial biofilms (FIG. 5), Applicant cloned (IMPACT®, NEB Ipswich, MA), expressed (in E. coli), and purified (heparin sepharose chromatography to >95% purity) tagless human recombinant HMGB1 (rHMGB1) and an engineered C45 S variant (mHMGB1) that mimics the reduced form of HMGB1. rHMGB1 readily forms an intramolecular disulfide bond between C23 and C45 that contributes to pro-inflammatory activity whereas mHMGB1 cannot. […]

[2] = test system: NTHI biofilm; experiment: in vitro disruption of established biofilms, CLSM and COMSTAT; assay type: cell-based, Nontypeable Haemophilus influenzae; settings: 200 nM added at 24 h, 16 h exposure
Procedure: (§3) FIGS. 5A-5E: Anti-biofilm effect of HMGB1 variants on high priority bacterial pathogens. Indicated HMGB1 variants or antibodies against DNABII proteins (α-1HFEc 1gG, 1 μM) were added at 24 h to the respective preformed bacterial biofilms, in vitro. After 16 h of Incubation, biofilms were stained with LIVE/DEAD®, then visualized via confocal laser scanning microscopy. Images were analyzed by COMSTAT to calculate average thickness and comparison to control was plotted. (FIG. 5A) Full-length HMGB1 isoforms (200 nM unless otherwise indicated) added to UPEC, B. cenocepacia, NTHI, or ESKAPE pathogens. 800 nM rHMGB1 and 200 nM mHMGB1 were added for S. aureus (ESKAPE). 800 nM rHMGB1, 800 nM mHMGB1, or 3.3 μM of α-1HFEc 1gG were added for E. faecium (ESKAPE) and were incubated for 1 h as opposed to 16 h to avoid potential degradation by E. faecium proteases. (FIG. 5B) Representative images of UPEC biofilms incubated with increasing concentrations of rHMGB1. (FIG. 5C) Individual domains of HMGB1 (200 nM) were tested for anti-biofilm activity as above (dotted line indicates control values). Bars represent the SEM. Statistical significance compared to control was assessed with unpaired t-tests, *P<0.05. […] (FIGS. 5D-5E) HMGB1 and variants disrupt preformed Klebsiella pneumoniae biofilms. rHMGB1, HMGB1 C45S (mHMGB1), bovine HMGB1 (bHMGB1), B box, B Box C106S (mB Box), A Box, and A+B Box were added (200 nM) at 24 h to preformed K. pneumoniae biofilms. After 16 h of incubation, biofilms were stained with LIVE/DEAD®, then visualized via confocal laser scanning microscopy. Images were analyzed by COMSTAT to calculate average thickness and total biomass. Error bars represent the SEM. ***P<0.0001; ns=not significant.
(§4) HMGB1 disrupts pathogenic biofilms: To test the effect of HMGB1 on bacterial biofilms (FIG. 5), Applicant cloned (IMPACT®, NEB Ipswich, MA), expressed (in E. coli), and purified (heparin sepharose chromatography to >95% purity) tagless human recombinant HMGB1 (rHMGB1) and an engineered C45 S variant (mHMGB1) that mimics the reduced form of HMGB1. rHMGB1 readily forms an intramolecular disulfide bond between C23 and C45 that contributes to pro-inflammatory activity whereas mHMGB1 cannot. These HMGB1 isoforms were evaluated for ability to disrupt established biofilms (formed for 24 h prior to addition). After a 16 h exposure to a single dose of rHMGB1 (200 nM; ˜25-fold greater than typical sepsis serum concentration, but not able to directly induce sepsis), biofilms formed by a wide variety of high priority species were stained with LIVE/DEAD®, analyzed using confocal laser scanning microscopy (CLSM) and COMSTAT analysis and compared to control biofilms. […] Preliminary analysis of PTMs by LC-MS/MS analysis (MS Bioworks, LLC Ann Arbor, MI) indicated minimal modification of both rHMGB1 and nHMGB1 (<20% of the observed peptides had any given PTM, FIG. 1C). […] Thus, while there are intrinsic differences in sensitivity among pathogens, the biofilms formed by all of the tested high priority pathogens were susceptible to a single dose of these non-antimicrobial compounds.
HMGB1 domain structure and anti-biofilm activity: Applicant then produced recombinant HMGB1 truncation variants, of 1) the A Box, a self-contained DNA-binding domain (residues 1-89); 2) an A-B Boxes construct (lacks the C tail; residues 1-185); and 3) the B Box (residues 80 to 176, FIGS. 1A and 1C). […]

[3] = test system: UPEC biofilm; experiment: as above; assay type: cell-based, Uropathogenic E. coli; settings: for disruption of established UPEC biofilms: added at 24 h, 16 h exposure, 200 nM unless stated
Procedure: as §3, §4
HMGB1 domain structure and anti-biofilm activity: Applicant then produced recombinant HMGB1 truncation variants, of 1) the A Box, a self-contained DNA-binding domain (residues 1-89); 2) an A-B Boxes construct (lacks the C tail; residues 1-185); and 3) the B Box (residues 80 to 176, FIGS. 1A and 1C). […] Since only the B Box can modulate DNA bending, without being bound by theory, it was hypothesized that HMGB1 disrupts biofilms at least in part via DNA-binding/bending. As the B Box is reported to contain pro-inflammatory activity, mediated primarily through interactions with TLR4-MD2 that are dependent on residue C106, Applicant created a modified B Box variant (mB Box) with a C106S mutation (FIGS. 1A and 1C).

[4] = test system: S. aureus biofilm; experiment: as above; assay type: cell-based; settings: 800 nM rHMGB1 used (FIG. 5A)
Procedure: as §1, §2

[5] = test system: E. faecium biofilm; experiment: as above; assay type: cell-based; settings: 800 nM rHMGB1, incubated 1 h (FIG. 5A)
Procedure: as §1, §2

[6] = test system: B. cenocepacia biofilm; assay type: cell-based, Burkholderia cenocepacia; settings: 200 nM added at 24 h, 16 h exposure
Procedure: Indicated HMGB1 variants or antibodies against DNABII proteins (α-1HFEc 1gG, 1 μM) were added at 24 h to the respective preformed bacterial biofilms, in vitro. After 16 h of Incubation, biofilms were stained with LIVE/DEAD®, then visualized via confocal laser scanning microscopy. Images were analyzed by COMSTAT to calculate average thickness and comparison to control was plotted. (FIG. 5A) Full-length HMGB1 isoforms (200 nM unless otherwise indicated) added to UPEC, B. cenocepacia, NTHI, or ESKAPE pathogens. 800 nM rHMGB1 and 200 nM mHMGB1 were added for S. aureus (ESKAPE). 800 nM rHMGB1, 800 nM mHMGB1, or 3.3 μM of α-1HFEc 1gG were added for E. faecium (ESKAPE) and were incubated for 1 h as opposed to 16 h to avoid potential degradation by E. faecium proteases. […] (FIG. 5C) Individual domains of HMGB1 (200 nM) were tested for anti-biofilm activity as above (dotted line indicates control values). Bars represent the SEM. Statistical significance compared to control was assessed with unpaired t-tests, *P<0.05. […] After 16 h of incubation, biofilms were stained with LIVE/DEAD®, then visualized via confocal laser scanning microscopy. Images were analyzed by COMSTAT to calculate average thickness and total biomass. Error bars represent the SEM. ***P<0.0001; ns=not significant.

Molecule: rHMGB1: tagless human recombinant full length HMGB1 (1-215) expressed in E. coli
- disruption of established biofilms (average thickness and biomass) of high priority species [1]: significant reduction
- disruption of established biofilms (average thickness and biomass) of high priority species ([1]; listed as Full length recombinant HMGB1): significantly disrupt
- disruption of established NTHI biofilms [2]: not as responsive
- disruption of established UPEC biofilms [3]: disrupted a UPEC biofilm in a dose-dependent manner
- average thickness of UPEC biofilm ([3]; progressively higher concentrations of rHMGB1, up to 400 nM, monolayer): ~1 μm
- concentration needed to disrupt S. aureus biofilm [4]: required a higher (albeit non-bactericidal) concentration
- concentration needed to disrupt E. faecium biofilm [5]: required a higher (albeit non-bactericidal) concentration

B1: B-linker Box: HMGB1 B Box with N- and C-terminal linker (80-179; 80 to 176 in b258), 97 amino acid (protein, UniProt P09429 80-179, looked up, fragment)
chain: PPKGETKKKFKDPNAPKRPPSAFFLFCSEYRPKIKGEHPGLSIGDVAKKLGEMWNNTAADDKQPYEKKAAKLKEKYEKDIAAYRAKGKPDAAKKGVVKAE
- disruption of established NTHI biofilms [2]: retained full anti-biofilm activity
- disruption of established Bc biofilms [6]: retained full anti-biofilm activity
- disruption of established UPEC biofilms [3]: retained full anti-biofilm activity
